Data: patent US8629240B2, “Peptide ligands for clusterin and uses thereof” (National Research Council of Canada, priority 2009, dated 2014)
Values belong to the compound of their own block, whether it stands above or below them. Ends that are not written are not given here. Peptide text beside a SMILES is read from it. Alexa Fluor 680 C2‑maleimide = near-infrared dye maleimide, coupled by thioether to the C-terminal Cys; DyLight 680 = DyLight 680 fluorophore

What was measured:
[1] = target: T1, epidermal growth factor ectodomain (EGFR-ED) (Homo sapiens, UniProt P00533); test: SPR specificity test with EGFR ectodomain; format: binding; settings: EGFR-ED 70 nM to 5.63 μM over immobilized peptide
T1 construct: the epidermal growth factor ectodomain (EGFR-ED)
T1 sequence (P00533 25-645 limits assumed): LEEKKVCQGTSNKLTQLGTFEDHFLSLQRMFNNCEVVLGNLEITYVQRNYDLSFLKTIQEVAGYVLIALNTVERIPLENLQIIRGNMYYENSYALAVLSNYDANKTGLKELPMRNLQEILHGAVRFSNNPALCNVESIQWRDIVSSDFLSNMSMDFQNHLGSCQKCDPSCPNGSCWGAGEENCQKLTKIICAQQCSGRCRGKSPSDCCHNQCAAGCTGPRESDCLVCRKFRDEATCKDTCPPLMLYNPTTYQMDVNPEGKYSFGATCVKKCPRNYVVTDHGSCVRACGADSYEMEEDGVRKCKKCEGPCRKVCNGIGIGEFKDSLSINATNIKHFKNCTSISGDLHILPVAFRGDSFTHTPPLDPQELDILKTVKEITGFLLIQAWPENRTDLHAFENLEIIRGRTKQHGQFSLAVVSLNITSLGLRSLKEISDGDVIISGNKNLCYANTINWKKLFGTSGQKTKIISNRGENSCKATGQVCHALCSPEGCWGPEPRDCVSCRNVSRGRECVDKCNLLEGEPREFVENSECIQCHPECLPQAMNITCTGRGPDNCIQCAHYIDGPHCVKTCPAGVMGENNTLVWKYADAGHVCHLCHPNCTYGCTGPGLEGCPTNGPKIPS
Procedure: (§1) The specificity of the clusterin-peptide interactions was investigated using SPR biosensor analysis and proteins unrelated to clusterin. Immobilization of the peptides and other proteins on the sensor chips and the SPR experiments were conducted as described in Example 4.

[2] = target: T2, rhCLU (recombinant human clusterin) (Homo sapiens, UniProt P10909); test: SPR biosensor analysis, rhCLU flowed over immobilized peptide; format: binding; settings: for sequence dependence of the interaction with clusterin: concluded from scrambled peptides; for koff / kon: 25° C.; for binding of rhCLU to immobilized randomized peptide (Scatchard plot): randomized sequence control peptides
T2 construct: made in house; host or cells: HEK-293 cells
T2 sequence (P10909 23-227 limits assumed): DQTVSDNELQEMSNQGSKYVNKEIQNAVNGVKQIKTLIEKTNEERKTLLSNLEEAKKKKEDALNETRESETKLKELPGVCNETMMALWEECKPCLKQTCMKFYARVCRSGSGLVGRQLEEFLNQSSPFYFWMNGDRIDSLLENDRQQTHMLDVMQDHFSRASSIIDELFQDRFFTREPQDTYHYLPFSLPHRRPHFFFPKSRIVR
T2 sequence (P10909 228-449 limits assumed): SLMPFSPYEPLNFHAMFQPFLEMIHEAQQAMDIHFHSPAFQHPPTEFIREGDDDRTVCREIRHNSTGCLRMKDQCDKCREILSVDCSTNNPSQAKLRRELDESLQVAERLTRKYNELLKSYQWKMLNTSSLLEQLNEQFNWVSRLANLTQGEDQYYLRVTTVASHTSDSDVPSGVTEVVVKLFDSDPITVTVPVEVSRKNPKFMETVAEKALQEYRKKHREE
Text: Peptides were immobilized on research-grade CM5 sensor chips by a maleimide coupling method. CM5 sensor chips (research grade) and EDC were purchased from Biosensor AB (Uppsala, Sweden). This thiol coupling generates a stable thioether bond between reactive maleimide groups on the sensor chip surface and the thiol groups of the peptides. A heterobifunctional reagent, SMCC-hydrazide (4-[N-maleimidomethyl]cyclohexane-1 carboxylhydrazide; 99.5% pure; purchased from Molecular Biosciences Inc. (Boulder, Colo.)), was used to introduce reactive maleimido groups to the sensor surface. Immobilization was performed at 25° C. at a flow rate of 5 μL/min. A continuous flow of the HBS-EP buffer (20 mM HEPES, 150 mM NaCl, 3.4 mM EDTA and 0.05% Tween™-20 at pH 7.4) was maintained over the sensor surface. The carboxylated dextran matrix on the sensor surface was activated by an injection of 50 μL of a freshly mixed solution containing 172 μL of 1.2 mM […] (EDC) in 100 mM MES buffer at pH 5.00, and 28 μL of 17.8 mM SMCC-hydrazide in 40% DMF. The ratio of the SMCC:EDC was 2.5:1. Peptide-coupled surfaces were generated by injecting peptides (30-100 μg/ml) in 100 mM MES buffer (at pH 5.0). The amount of peptide immobilized on the activated surface was controlled by altering the contact time with the peptide solution and was between approximately 400 and 500 RU, or 400-500 pg peptide/mm^2. The immobilization procedure was completed by a 50 μL injection of 50 mM cysteine in 1 M sodium chloride and 0.1M sodium acetate (pH 4) to quench excess active maleimide groups.
Protein-peptide interactions were followed using a BIAcore 3000 instrument (Biosensor AB, Uppsala, Sweden). All binding experiments were carried out at 25° C. under a continuous flow of the HBS-EP buffer (20 mM HEPES, 150 mM NaCl, 3.4 mM EDTA and 0.05% Tween-200) at pH 7.4 over the sensor surface at a flow rate of 20 μL/min. Different concentrations of rh-clusterin in the HBS-EP buffer were injected over the peptide-derivatized sensor chips. Dissociation was monitored for up to 300 s post-injection. The surfaces were fully regenerated by 15 s injection of an HBS-EP buffer solution containing 5 mM NaOH. […] Reference responses from control flow cells, containing unmodified dextran surfaces, were subtracted from peptide-containing flow cells, for each analyte injection using the BiaEvaluation software version 3.0 (Biacore AB, Uppsala, Sweden).
The resulting sensorgrams were used for kinetic rate determination through global fitting of the experimental data to a simple 1:1 Langmuir binding model. […] Affinity data (KD) from the binding studies were obtained by plotting the response in RU at the steady state, Req, versus the concentration of clusterin, C, and by fitting these curves to a one-site binding model, Req=C*xRmax/(C+KD) where Rmax is the value in RU at saturation and Req is the observed optical change in RU at each given C.

rh-clusterin = target: T3, rh-clusterin (Homo sapiens, UniProt P10909); test: STD-NMR binding of synthetic peptides to rh-clusterin; settings: ~1:30 protein:peptide, 298K
T3 construct: made in house; host or cells: HEK-293 cells
T3 sequence (P10909 23-227 limits assumed): as the sequence (P10909 23-227 limits assumed) above
T3 sequence (P10909 228-449 limits assumed): as the sequence (P10909 228-449 limits assumed) above
Procedure: To confirm direct binding of the peptides of Example 1 to clusterin, the interaction of the synthetic peptides of Example 2 with clusterin was tested using Nuclear Magnetic Resonance Saturation Transfer Difference (STD-NMR; Mayer & Meyer, 2001)
NMR samples were prepared by dissolving 0.15 mM of peptides in 50 mM sodium phosphate buffer, 0.2 mM EDTA, pH 6.5. rh-clusterin (˜1 mg/ml) in 5 mM sodium phosphate buffer, 0.02 mM EDTA, pH 7.4, was added to ˜1:30 protein:peptide ratio.
All NMR experiments were performed at 298K on a Bruker Avance800™ NMR spectrometer equipped with a 5 mm triple-resonance probe with three-axis gradients. Saturation transfer difference (STD) spectra was recorded using WATERGATE version of STD pulse sequence (35) with a 3 s selective saturation pulse applied in the relaxation delay and a 20 ms spinlock pulse with a field strength of 12.25 kHz. The saturation pulse was implemented using a pulse train of 49 ms Gaussian-shaped selective pulse and 1 ms interpulse delay. Each Gaussian-shaped pulse had 1000 points with a 1% truncation and was applied with a field strength of 75.9 Hz. STD spectra were recorded with a spectral width of 16025.64 Hz and 32 K data points. Time domain signals were accumulated with 1024 and 4096 scans for the free and complexed sample, respectively. NMR data were processed using Bruker Xwinnmr 2.6. An exponential weighting function of 7 Hz was applied prior to Fourier transformation and polynomial baseline correction.
NMR signals of peptide P3378 and rh-clusterin were severely overlapped, making it impossible to apply the above saturation pulse exclusively on rh-clusterin resonances without disturbing those of the peptide. In order to identify the binding interactions in the P3378-rh-clusterin complex, a new experimental scheme was implemented by applying the on-resonance saturation pulse at methyl resonances (0.912 ppm) and the off-resonance irradiation at −7.799 ppm (referenced H2O to 4.700 ppm). […]

[3] = target: T4, extracellular domain of the Type II TGF-beta receptor (Homo sapiens, UniProt P37173); test: SPR specificity test with Type II TGF-beta receptor extracellular domain; format: binding; settings: receptor 38 nM to 4.5 μM over immobilized peptide
T4 construct: the extracellular domain of the Type II TGF-beta receptor
T4 sequence (P37173 23-166 limits assumed): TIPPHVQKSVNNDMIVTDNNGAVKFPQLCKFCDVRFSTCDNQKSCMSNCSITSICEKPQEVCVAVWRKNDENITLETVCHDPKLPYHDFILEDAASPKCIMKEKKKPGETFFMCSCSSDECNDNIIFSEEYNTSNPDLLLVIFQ
Procedure: as §1
FIG. 8 presents SPR biosensor sensorgrams showing the interaction of the extracellular domain of the Type II TGF-beta receptor (38 nM to 4.5 μM) with immobilized P3378 (500 RUs) (FIG. 8A) or P3375 (1200 RUs) (FIG. 8B).

4T1 tumor [4] = system: 4T1 tumor
Procedure: As a model system, 4T1 mouse mammary carcinoma cell line cells were used to generate tumors in syngeneic BALB/c mice. […] Six to eight weeks old female BALB/c mice were obtained from Charles River. […] A 50 μl 1:1 solution of sterile Matrigel and saline, or the same solution containing 4T1 mouse mammary tumor cells (5×10^6 cells), was injected subcutaneously into the right hind thigh of the animal. Clippers and Nair were used to remove hair from the injection site as well as the lower back and the left thigh of the animals prior to the Matrigel and tumor cell injections. When tumors measured ˜0.5 to 0.8 cm in diameter (6-8 days), the tumor-bearing mice were subjected to in vivo imaging.
Animals were imaged using the following procedures. Animals were anesthetized using isoflurane (3% in O2 at 2 L/min). Prior to the injection of the labeled peptides, animals were subjected to a full body scan to obtain a background fluorescence image. P3378-Alexa680 or P3378R-Alexa680 was administered (25 nmol in 100 μL sterile saline) via the tail vein using a 0.5-ml insulin syringe with a 27-gauge fixed needle. Immediately after, the animal was placed on the heated animals plate (39° C.) of the ART eXplore Optix MX2 imaging system (Advanced Research Technologies, Montreal, Canada). Laser power and counting time per pixel were optimized at 9.6 μW and 0.5 s, respectively. These values remained constant during the entire experiment. The raster scan interval was set at 1.5 mm and was held constant during the acquisition of each image. The data were recorded as Temporal Point-Spread Functions (TPSF), and fluorescence intensity and fluorescence lifetime maps were generated. All images were analyzed using the ART Optix OptiView™ software. Volume data and 3D images were reconstructed using the ART OptiView™ 3D Reconstruction Software Module. All animals were euthanized after the imaging experiments.
Animals were imaged in the ART Optix MX2 small animal imager using three approaches: • a. Mice were injected intravenously (i.v.) via the tail vein with either 5 nanomoles of P3378 peptide labeled with Alexa680, or P3378R peptide labeled with Alexa680; • b. Mice were injected intravenously (i.v.) via the tail vein with either 25 nanomoles of P3378 peptide labeled with Alexa680, or P3378R peptide labeled with Alexa680; • c.

4T1 tumor [5] = test: In vivo blocking experiment with excess unlabeled peptide; design: species or system mouse
Procedure: To further validate the specificity of the in vivo targeting ability of the P3378-DL680 probe, a blocking experiment using an excess of unlabeled P3378 peptide was carried out. Mice received 25 nmoles of P3378-DL680 alone (n=1) or in combination with 5 μmoles unlabeled P3378 or P3378R peptide (both n=2) in 100 μL sterile saline. Animals in the control groups received 25 nmoles of P3378-DL680 with or without 5 μmoles of the unlabeled scrambled P3378R peptide, whereas the experimental animals were injected with 25 nmoles of P3378-DL680 in combination with 5 μmoles of unlabeled P3378 peptide. […] Furthermore, using the gated NIRF lifetime and the OptiView 3D reconstruction module we selected in each mouse the slice along the Z-axis that contained the highest concentration of P3378-DL680 and determined its relative concentration.

[6] = system: 4T1 tumor and organs (liver, spleen, pancreas, kidney, heart, lungs); test: Confocal microscopy of probe distribution in 4T1 tumor and organs; format: in vivo, mouse
Procedure: Confocal microscopy was used to evaluate the distribution of the P3378-DL680 probe in the 4T1 tumor and various organs (liver, spleen, pancreas, kidney, heart, lungs), harvested 15 min post-injection. […] DAPI staining of the nuclei was used to visualize tissue morphology.

[7] = global fit, one-to-one Langmuir binding model

- binding to EGFR-ED [1]: do not bind specifically
- sequence dependence of the interaction with clusterin [2]: not peptide sequence specific
- koff [2, 7]: 0.006 ± 0.0002 s⁻¹
- kon [2, 7]: 11200 M⁻¹ s⁻¹
- binding to clusterin by STD-NMR (rh-clusterin): confirmed
- interaction with Type II TGF-beta receptor [3]: no significant signal was observed
Compound: CC(C)C[C@H](NC(=O)[C@H](CCC(N)=O)NC(=O)[C@H](CO)NC(=O)[C@H](Cc1c[nH]c2ccccc12)NC(=O)[C@H](Cc1ccc(O)cc1)NC(=O)[C@@H](NC(=O)[C@@H](N)CC(N)=O)[C@@H](C)O)C(=O)N[C@@H](CC(C)C)C(=O)N[C@@H](Cc1c[nH]cn1)C(=O)N[C@@H](Cc1ccccc1)C(=O)N[C@@H](CCC(N)=O)C(=O)N[C@H](C(=O)N[C@@H](CO)C(=O)NCC(=O)N[C@@H](CO)C(=O)NCC(=O)N[C@@H](CS)C(=O)O)[C@@H](C)O [P3375]

- sequence dependence of the interaction with clusterin [2]: not peptide sequence specific
- binding to clusterin by STD-NMR (rh-clusterin): confirmed
Compound: CC(C)C[C@H](NC(=O)[C@@H]1CCCN1C(=O)[C@H](CC(C)C)NC(=O)[C@H](C)NC(=O)[C@H](Cc1c[nH]cn1)NC(=O)[C@@H](N)CO)C(=O)N[C@H](C(=O)N[C@@H](Cc1c[nH]c2ccccc12)C(=O)N[C@@H](CO)C(=O)N[C@H](C(=O)N[C@@H](C)C(=O)N[C@@H](C)C(=O)N[C@@H](CO)C(=O)NCC(=O)N[C@@H](CO)C(=O)NCC(=O)N[C@@H](CS)C(=O)O)[C@@H](C)O)[C@@H](C)O [P3376, SHALPLTWSTAA]

Compound: CC(C)C[C@H](NC(=O)[C@H](Cc1ccc(O)cc1)NC(=O)[C@@H]1CCCN1)C(=O)N[C@@H](Cc1c[nH]cn1)C(=O)N[C@@H](CCC(N)=O)C(=O)N[C@@H](CO)C(=O)N1CCC[C@H]1C(=O)N[C@@H](Cc1c[nH]cn1)C(=O)N[C@@H](Cc1c[nH]c2ccccc12)C(=O)N[C@@H](CCCCN)C(=O)N1CCC[C@H]1C(=O)N[C@@H](CO)C(=O)N[C@@H](CO)C(=O)NCC(=O)N[C@@H](CO)C(=O)NCC(=O)N[C@@H](CS)C(=O)O [P3378R, PYLHQSPHWKPSSGSGC, reference compound] (H-PYLHQSPHWKPSSGSGC-OH)
- accumulation in the kidneys (4T1 tumor [4]; mouse, in vivo): faster accumulation

Compound: CC(C)C[C@H](NC(=O)[C@@H]1CCCN1C(=O)[C@@H](N)Cc1c[nH]cn1)C(=O)N[C@@H](CO)C(=O)N[C@@H](CCCCN)C(=O)N[C@@H](Cc1c[nH]cn1)C(=O)N1CCC[C@H]1C(=O)N[C@@H](Cc1ccc(O)cc1)C(=O)N[C@@H](Cc1c[nH]c2ccccc12)C(=O)N[C@@H](CO)C(=O)N[C@@H](CCC(N)=O)C(=O)N1CCC[C@H]1C(=O)N[C@@H](CO)C(=O)NCC(=O)N[C@@H](CO)C(=O)NCC(=O)N[C@@H](CS)C(=O)O [P3378]
- binding to EGFR-ED [1]: do not bind specifically
- sequence dependence of the interaction with clusterin [2]: sequence dependent
- koff [2, 7]: 0.0052 ± 0.0002 s⁻¹
- kon [2, 7]: 17200 M⁻¹ s⁻¹
- Kd ([2]; global fit, one-to-one Langmuir binding model, read-out: Kd (global kinetic fit)): 300 nM
- AUT/AUN ratio as a function of time: behaviour after the initial accumulation (4T1 tumor [4]; co-injection of P3378-Dylight680 and P3378R-Dylight800, 25 nanomoles each i.v.): remains at the tumor site
- residence at the tumor site (4T1 tumor [4]; co-injection of P3378-Dylight680 and P3378R-Dylight800, 25 nanomoles each i.v., 6 animals): resided much longer at the tumor site
- time post-injection up to which both peptides accumulate at the tumor site at the same rate (4T1 tumor [4]; co-injection, AUT/AUN ratio): ~60 min
- binding to clusterin by STD-NMR (rh-clusterin): direct interaction
- blocking of uptake of P3378-DL680 into the tumor by unlabeled peptide (4T1 tumor [5]; 5 μmoles unlabeled peptide with 25 nmoles P3378-DL680, 15 min post-injection): successfully blocked uptake
- detection in the other organs ([6]; 25 nmoles P3378-DL680, 15 min post-injection, liver, spleen, pancreas, kidney, heart, lungs): could not be detected
- interaction with Type II TGF-beta receptor [3]: no significant signal was observed

- binding of rhCLU to immobilized randomized peptide (Scatchard plot) [2]: bound
Compound: AWHTLASTSLAPSGSGC (Randomized control for P3376) [P3376R, randomized version of P3376, reference compound]

- binding of rhCLU to immobilized randomized peptide (Scatchard plot) [2]: bound
Compound: LSLYHTNTQFWQSGSGC (Randomized control for P3375) [P3375R, randomized version of P3375, reference compound]

Compound: P3378-Alexa680: P3378 peptide labeled with Alexa Fluor 680 C2-maleimide (HPLSKHPYWSQPSGSGC(Alexa Fluor 680 C2‑maleimide))
- accumulation in the tumor (as well as kidney and bladder) (4T1 tumor [4]; 5 or 25 nanomoles i.v., Alexa680 label): accumulation

Compound: P3378-DL680: P3378 peptide labeled with Dylight680 fluorophor (HPLSKHPYWSQPSGSGC(DyLight 680))
- relative concentration of the probe at the tumor site (4T1 tumor [5]; in the presence of excess scrambled P3378R peptide vs probe alone): only slightly affected
- relative concentration of the probe at the tumor site, times lower (4T1 tumor [5]; in the presence of excess unlabeled P3378 peptide vs probe alone): 3-4 times
- uptake of the fluorescent probe in the 4T1 tumor ([6]; 25 nmoles, 15 min post-injection, frozen sections): specific uptake and accumulation
